Assay results from publication PMC4356482 (Bioorganic & medicinal chemistry letters, 2011).

Experiments:
Assay type in all cases: binding
[1] = target: T1, fatty acid synthase I (FAS I) (Mycobacterium tuberculosis, UniProt P95029); experiment: STD-NMR
[2] = target: T1, fatty acid synthase I (FAS I); experiment: STD-NMR, competition titration with PZA
[3] = target: T1, fatty acid synthase I (FAS I); experiment: biochemical

Structure (SMILES) | STD-NMR, competition titration with PZA [2] | further results
C/C=C/C/C=C/CCC(=O)[C@H]1O[C@H]1C(N)=O [Cerulenin] | – | STD-NMR (positive control, 350 μM cerulenin) [1]: displays signals corresponding to cerulenin resonances that are indicative of cerulenin binding to Mtb FAS I
NC(=O)C1=CN([C@@H]2O[C@H](COP(=O)(O)OP(=O)(O)OC[C@H]3O[C@@H](n4cnc5c(N)ncnc54)[C@H](OP(=O)(O)O)[C@@H]3O)[C@@H](O)[C@H]2O)C=CC1 [NADPH] | Consistent with the binding of NADPH to Mtb FAS I the intensity of the NADPH resonances increases. | –
O=C(O)c1cnccn1 [POA, pyrazinoic acid] | although POA binds reversibly to Mtb FAS I it does not compete with PZA since PZA is apparently not displaced | –
NC(=O)c1cnccn1 [PZA, Pyrazinamide] | – | Kd [3]: 70 to 123 µM
